What was measured:
Experiment in all cases: KiNativ profiling in human PBMCs
Format in all cases: binding
[1] = tested on: T1, KHS1; conditions: Lys1
T1 construct: purchased ActivX Technologies (KiNativ)
Method in brief: (§1)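 Compound was applied to living PBMCs at 0.1 µM or 1 µM. Occupancy of kinases was then assessed by KiNativ.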

[2] = tested on: RSK1,RSK2,RSK3 domain1; conditions: Lys2
Method in brief: as §1

[3] = tested on: T2, GSK3A; conditions: Lys2
T2 construct: purchased ActivX Technologies (KiNativ)
Method in brief: as §1

[4] = tested on: T3, Erk1; conditions: Lys2
T3 construct: purchased ActivX Technologies (KiNativ)
Method in brief: as §1

[5] = tested on: T4, MAP2K7; conditions: Lys2
T4 construct: purchased ActivX Technologies (KiNativ)
Method in brief: as §1

[6] = tested on: T5, LRRK2
T5 construct: purchased ActivX Technologies (KiNativ)
Method in brief: as §1

[7] = tested on: T6, NuaK2; conditions: Lys1
T6 construct: purchased ActivX Technologies (KiNativ)
Method in brief: as §1

[8] = tested on: T7, MAP3K1; conditions: Lys2
T7 construct: purchased ActivX Technologies (KiNativ)
Method in brief: as §1

[9] = tested on: T8, CaMK4
T8 construct: purchased ActivX Technologies (KiNativ)
Method in brief: as §1

[10] = tested on: T9, CaMK2g; conditions: Lys1
T9 construct: purchased ActivX Technologies (KiNativ)
Method in brief: as §1

[11] = tested on: T10, NEK8; conditions: Lys2
T10 construct: purchased ActivX Technologies (KiNativ)
Method in brief: as §1

[12] = tested on: T11, PIK3CD; conditions: ATP
T11 construct: purchased ActivX Technologies (KiNativ)
Method in brief: as §1

[13] = tested on: ZC1/HGK,ZC2/TNIK,ZC3/MINK; conditions: Lys2
Method in brief: as §1

[14] = tested on: PCTAIRE1,PCTAIRE3; conditions: Lys2
Method in brief: as §1

[15] = tested on: PKCa,PKCb; conditions: Lys2
Method in brief: as §1

[16] = tested on: T12, PCTAIRE2; conditions: Lys2
T12 construct: purchased ActivX Technologies (KiNativ)
Method in brief: as §1

[17] = tested on: T13, CHK2
T13 construct: purchased ActivX Technologies (KiNativ)
Method in brief: as §1

[18] = tested on: T14, ZAP70
T14 construct: purchased ActivX Technologies (KiNativ)
Method in brief: as §1

[19] = tested on: NEK6,NEK7; conditions: Lys2
Method in brief: as §1

[20] = tested on: T15, CSK
T15 construct: purchased ActivX Technologies (KiNativ)
Method in brief: as §1

[21] = tested on: T16, MAP2K3
T16 construct: purchased ActivX Technologies (KiNativ)
Method in brief: as §1

[22] = tested on: T17, PYK2
T17 construct: purchased ActivX Technologies (KiNativ)
Method in brief: as §1

[23] = tested on: MAP3K2,MAP3K3; conditions: Lys2
Method in brief: as §1

[24] = tested on: ABL,ARG
Method in brief: as §1

[25] = tested on: T18, ILK
T18 construct: purchased ActivX Technologies (KiNativ)
Method in brief: as §1

[26] = tested on: T19, Erk2; conditions: Lys2
T19 construct: purchased ActivX Technologies (KiNativ)
Method in brief: as §1

[27] = tested on: T20, CaMKK2
T20 construct: purchased ActivX Technologies (KiNativ)
Method in brief: as §1

[28] = tested on: T21, PIK3CB; conditions: ATP
T21 construct: purchased ActivX Technologies (KiNativ)
Method in brief: as §1

[29] = tested on: T22, IRAK3; conditions: Lys1
T22 construct: purchased ActivX Technologies (KiNativ)
Method in brief: as §1

[30] = tested on: T23, CaMK2d; conditions: Lys1
T23 construct: purchased ActivX Technologies (KiNativ)
Method in brief: as §1

[31] = tested on: T24, ACK; conditions: Lys1
T24 construct: purchased ActivX Technologies (KiNativ)
Method in brief: as §1

[32] = tested on: T25, QSK; conditions: Lys1
T25 construct: purchased ActivX Technologies (KiNativ)
Method in brief: as §1

[33] = tested on: T26, RSK2 domain2; conditions: Lys2
T26 construct: RSK2 domain2; purchased ActivX Technologies (KiNativ)
Method in brief: as §1

[34] = tested on: T27, BRAF; conditions: Lys2
T27 construct: purchased ActivX Technologies (KiNativ)
Method in brief: as §1

[35] = tested on: T28, NEK4; conditions: Lys2
T28 construct: purchased ActivX Technologies (KiNativ)
Method in brief: as §1

[36] = tested on: T29, MAST3; conditions: Lys2
T29 construct: purchased ActivX Technologies (KiNativ)
Method in brief: as §1

[37] = tested on: T30, JAK1 domain1; conditions: Protein Kinase Domain
T30 construct: JAK1 domain1; purchased ActivX Technologies (KiNativ)
Method in brief: as §1

Cn1cc(-c2c[nH]c3ncnc(N4CCOCC4)c23)cc1C#N [PFE-360]
% Inhibition ([1]; 0.1µM): 1.1% | % Inhibition ([1]; 1µM): -9.3% | % Inhibition ([2]; 0.1µM): 14.5% | % Inhibition ([2]; 1µM): 16.3% | % Inhibition ([3]; 0.1µM): 10.6% | % Inhibition ([3]; 1µM): 19.8% | % Inhibition ([4]; 0.1µM): 7.7% | % Inhibition ([4]; 1µM): 3.7% | % Inhibition ([5]; 0.1µM): 7.5% | % Inhibition ([5]; 1µM): -1.1% | % Inhibition ([6]; 0.1µM, Lys1): >90% | % Inhibition ([6]; 0.1µM, Lys2): 93.8% | Inhibition ([6]; 0.1µM, Lys2): full inhibition | % Inhibition ([6]; 1µM, Lys1): >90% | % Inhibition ([6]; 1µM, Lys2): 96.7% | % Inhibition ([7]; 0.1µM): 14.4% | % Inhibition ([7]; 1µM): 4.6% | % Inhibition ([8]; 0.1µM): 7% | % Inhibition ([8]; 1µM): -26.4% | % Inhibition ([9]; 0.1µM, Lys1): -10.2% | % Inhibition ([9]; 0.1µM, Lys2): 15% | % Inhibition ([9]; 1µM, Lys1): -8.5% | % Inhibition ([9]; 1µM, Lys2): 9.5% | % Inhibition ([10]; 0.1µM): 11.1% | % Inhibition ([10]; 1µM): 9.2% | % Inhibition ([11]; 0.1µM): -1.8% | % Inhibition ([11]; 1µM): -12.1% | % Inhibition ([12]; 0.1µM, peptide TKVNWLAHNVSKDNRQ): -9.3% | % Inhibition ([12]; 0.1µM, peptide VNWLAHNVSKDNRQ): 0.5% | % Inhibition ([12]; 1µM, peptide TKVNWLAHNVSKDNRQ): -11.6% | % Inhibition ([12]; 1µM, peptide VNWLAHNVSKDNRQ): 1.4% | % Inhibition ([13]; 0.1µM): 10.3% | % Inhibition ([13]; 1µM): -7.3% | % Inhibition ([14]; 0.1µM): 1.3% | % Inhibition ([14]; 1µM): 11.4% | % Inhibition ([15]; 0.1µM): -32.8% | % Inhibition ([15]; 1µM): -10.6% | % Inhibition ([16]; 0.1µM): -2.4% | % Inhibition ([16]; 1µM): -5.2% | % Inhibition ([17]; 0.1µM, Lys1): 3.6% | % Inhibition ([17]; 0.1µM, Lys2): -6.7% | % Inhibition ([17]; 1µM, Lys1): -2.7% | % Inhibition ([17]; 1µM, Lys2): -12.6% | % Inhibition ([18]; 0.1µM, Activation Loop): -0.7% | % Inhibition ([18]; 0.1µM, Lys1): 0.4% | % Inhibition ([18]; 1µM, Activation Loop): -9.8% | % Inhibition ([18]; 1µM, Lys1): -5.9% | % Inhibition ([19]; 0.1µM): -2.4% | % Inhibition ([19]; 1µM): -18.6% | % Inhibition ([20]; 0.1µM, Activation Loop): -3.4% | % Inhibition ([20]; 0.1µM, Lys1): 0.7% | % Inhibition ([20]; 1µM, Activation Loop): -10.5% | % Inhibition ([20]; 1µM, Lys1): -10.4% | % Inhibition ([21]; 0.1µM, Lys1): -7.9% | % Inhibition ([21]; 0.1µM, Lys2): 9.4% | % Inhibition ([21]; 1µM, Lys1): 11.1% | % Inhibition ([21]; 1µM, Lys2): -11.7% | % Inhibition ([22]; 0.1µM, Activation Loop): 8.4% | % Inhibition ([22]; 0.1µM, Lys1): 29.3% | % Inhibition ([22]; 1µM, Activation Loop): 7.1% | % Inhibition ([22]; 1µM, Lys1): -2.2% | % Inhibition ([23]; 0.1µM): -2.6% | % Inhibition ([23]; 1µM): -12.9% | % Inhibition ([24]; 0.1µM, Activation Loop): -15.2% | % Inhibition ([24]; 0.1µM, Lys1): -22.4% | % Inhibition ([24]; 1µM, Activation Loop): -0.3% | % Inhibition ([24]; 1µM, Lys1): 1.3% | % Inhibition ([25]; 0.1µM, Lys1): 4.8% | % Inhibition ([25]; 0.1µM, Protein Kinase Domain): -4% | % Inhibition ([25]; 1µM, Lys1): 6.2% | % Inhibition ([25]; 1µM, Protein Kinase Domain): 26% | % Inhibition ([26]; 0.1µM): 9.1% | % Inhibition ([26]; 1µM): 5.3% | % Inhibition ([27]; 0.1µM, Lys1): -23.9% | % Inhibition ([27]; 0.1µM, Lys2): -16.3% | % Inhibition ([27]; 1µM, Lys1): -1.2% | % Inhibition ([27]; 1µM, Lys2): 4.6% | % Inhibition ([28]; 0.1µM): -27.2% | % Inhibition ([28]; 1µM): 12.3% | % Inhibition ([29]; 0.1µM): -1.2% | % Inhibition ([29]; 1µM): 3% | % Inhibition ([30]; 0.1µM): 0.1% | % Inhibition ([30]; 1µM): -3% | % Inhibition ([31]; 0.1µM): -5.6% | % Inhibition ([31]; 1µM): -0.5% | % Inhibition ([32]; 0.1µM): -13% | % Inhibition ([32]; 1µM): -12.1% | % Inhibition ([33]; 0.1µM): -7.4% | % Inhibition ([33]; 1µM): -13.8% | % Inhibition ([34]; 0.1µM): -13.9% | % Inhibition ([34]; 1µM): -14.3% | % Inhibition ([35]; 0.1µM): 9.8% | % Inhibition ([35]; 1µM): -8.3% | % Inhibition ([36]; 0.1µM): 0.2% | % Inhibition ([36]; 1µM): -2.7% | % Inhibition ([37]; 0.1µM): 16.2% | % Inhibition ([37]; 1µM): 8.2%
